# Experimental data published in the METLIN SMRT retention time set (Domingo-Almenara et al. 2019).
# Assay: gradient 5% acetonitrile 3 min, to 50% in 2 min, to 85% in 15 min, held 3 min, 100 µL/min
# Settings: column: Zorbax Extend-C18 2.1 x 50 mm; eluents: water / acetonitrile, 0.1% formic acid
# Procedure, shortened: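 In both positive and negative ionization mode, a quadrupole time-of-flight mass spectrometer coupled to HPLC analyzed pure standards run in mixtures of ~100 molecules. The Zorbax Extend-C18 column (2.1 × 50 mm, 1.8 μm) was operated at 100 μL/min with water and acetonitrile, each containing 0.1% formic acid. The dead volume was 40 μL and the dwell volume 900 μL. Retention time came from adduct peaks that were computationally picked and individually inspected by hand.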
row,RP-LC retention time [s],Structure (SMILES)
1,738,COc1ccc(-c2nnc(COc3ccc(NC(=O)c4ccoc4)cc3)o2)cc1
2,1030,Fc1ccc(-c2nnc(Cc3nc(-c4ccc(F)c(F)c4)no3)o2)cc1
3,847,O=c1n(Cc2cccc(C(F)(F)F)c2)nc2c(S(=O)(=O)N3CCOCC3)cccn12
4,911,CC1=C(c2ccc(C(C)C)cc2)S(=O)(=O)N=C1N1CCCN(C(=O)c2ccoc2)CC1
5,848,COc1ccc(N2CCN(c3ncc(S(=O)(=O)c4ccccc4)c(N)n3)CC2)cc1
6,844,O=C(Nc1ccc(C2(C(=O)N3CCCCCC3)CCC2)cc1)C1CC1
7,889,Cc1ccc(-c2ccc(N3CCCC(C(=O)NCc4ccc(C(C)C)cc4)C3)nn2)cc1 (stereo unspecified)
8,797,COc1ccc(-c2cn3ccn(-c4cc(C)cc(C)c4)c(=O)c3n2)cc1OC
9,1270,CCc1nc2cc(-c3noc(-c4ccc(OC)cc4C)n3)ccc2o1
10,1110,Cc1csc(-c2cc(S(=O)(=O)NCC(C)c3ccccc3)c(C)s2)n1 (stereo unspecified)
11,1120,COc1ccc(NC(=O)Cn2c(N3CCOCC3)nc(C)cc2=O)cc1Cl
12,607,Cc1cc(C)n(CCNC(=O)c2c(F)cccc2F)n1
13,817,O=C(CN1C(=O)c2cccnc2Sc2ccccc21)NCCc1c[nH]c2ccc(Cl)cc12
14,1090,CCOc1cccc(-c2noc(Cn3cnc4c(cnn4-c4ccc(OC)cc4)c3=O)n2)c1
15,715,Cc1ccc(C2(O)C(=O)N(CC(=O)Nc3ccc(F)cc3F)c3ccccc32)cc1 (stereo unspecified)
16,829,CC(C)CCNC(=O)C1CCCN(c2nnc3ccc(C(F)(F)F)cn23)C1 (stereo unspecified)
17,764,O=C(Cn1nc2n(c1=O)CCCCC2)Nc1ccc(C(F)(F)F)cc1
18,812,CCOC(=O)c1c(C)oc2nc(C)nc(NCCCN(CC)c3cccc(C)c3)c12
19,746,CCCCNC(=O)C1CCCN(c2nnc(C)c3c(C)n(-c4ccc(Cl)cc4)nc23)C1 (stereo unspecified)
20,590,O=C(c1cc(-c2ccncc2)n[nH]1)N1CCN(C(=O)c2ccc(Br)o2)CC1
21,1110,CCn1c(C(=O)NCc2ccccc2)cc2sc(Cl)cc21
22,739,CC(=O)Nc1ccc(C(=O)N2CC(C)CC(C)C2)o1 (stereo unspecified)

row,RP-LC retention time [s],Structure (SMILES)
1,651,O=C(C1CC1)N1CCCC(OCc2nc(-c3cnccn3)no2)C1 (stereo unspecified)
2,1250,CSc1ccc(NC(=O)c2c(C)sc3ncnc(N4CCCC(C)C4)c23)cc1 (stereo unspecified)
3,716,Cc1ccc(Nc2c(-c3ccc(N4CCOCC4)cc3)nc3ncccn23)cc1C
4,915,COc1ccc(OC)c(NC(=O)c2cnc(-c3ccc(F)cc3)nc2-c2ccncc2)c1
5,874,CCN(CC)C(=O)N1CCC(Oc2ccc(-c3noc(COC)n3)cc2)C1 (stereo unspecified)
6,575,COc1cccc(CCC(=O)N2CCc3nc[nH]c3C2)c1
7,818,Cc1ccccc1-c1nnc(CSc2ccc(N)cc2)o1
8,623,CCOc1ccc(S(=O)(=O)N2CCC(C(=O)NCc3cccnc3)CC2)cc1
9,1060,CC1CCN(S(=O)(=O)c2ccc(-c3nnc(C(=O)NCCc4cccs4)o3)cc2)CC1
10,587,CCN(CC)CCNC(=O)c1ccc(-c2ccccc2)cc1
11,608,COc1ccc(NC(=O)NCCn2c(-c3ccncc3)nc3cccnc32)cc1
12,970,CCOc1cccc(-c2noc(Cn3c(=O)n(-c4cccc(OC)c4)c(=O)c4sccc43)n2)c1
13,997,Cc1cc(C)n(Cc2nc(-c3ccc(NC(=O)Cc4ccc(Cl)cc4)cc3)oc2C)n1
14,706,COc1ccc(NC(=O)c2c(C)oc3nc(C)nc(N4CCOCC4)c23)cc1
15,1180,Cc1nn(C(=O)C(C)(C)C)c(C)c1S(=O)(=O)N1CCCC1
16,628,CNC(=O)NC1CCN(C(=O)c2cccc(F)c2)C1 (stereo unspecified)
17,781,Cc1sc2ccn(C)c(=O)c2c1C(=O)NCc1cc(F)ccc1F
18,1050,Cc1cc(N2CCOCC2)nc(N2CCN(C(=O)c3c(F)cccc3F)CC2)n1
19,1160,CCCCn1c(=O)c2ccccc2n(Cc2nc(-c3cc(OC)cc(OC)c3)no2)c1=O
20,1300,COc1ccc(OCc2nc(-c3ccc(-c4csc(C5CC5)n4)cc3)no2)cc1
21,861,COc1cc(OC)c(NC(=O)Cn2c(=O)n(-c3ccccc3)c(=O)c3c2cc(C)n3C)cc1Cl
22,719,Cc1ccc(NC(=O)Nc2ccc3nnc(C)n3c2)cc1C

row,RP-LC retention time [s],Structure (SMILES)
1,577,Cc1ncsc1CN1CCCC(c2nc(-c3cnccn3)no2)CCNC(=O)CC1 (stereo unspecified)
2,1060,CCc1ccc(C2CC(=O)Nc3c(S(=O)(=O)c4ccccc4)csc32)cc1 (stereo unspecified)
3,1120,O=c1c2cc(-c3ccc(F)cc3)nn2ccn1Cc1ccccc1Cl
4,665,Cc1nn(CC(=O)NCCCN2CCOCC2)c(=O)c2c(-n3cccc3)n(-c3ccc(F)cc3)nc12
5,830,COc1ccc(-c2noc(C3CCCN3C(=O)Nc3ccc(C)cc3)n2)cc1 (stereo unspecified)
6,881,COc1ccc(S(=O)(=O)N2C[C@H]3CN(C(=O)Nc4cccc(OC)c4)C[C@@H](C2)O3)cc1
7,982,COc1cccc(CNC(=O)C2(C)CCCN(C(=O)Nc3ccc(C)c(Cl)c3)C2)c1 (stereo unspecified)
8,1010,CC1CCN(S(=O)(=O)c2cc(C(=O)N3CCN(c4ccc(F)cc4)CC3)n(C)c2)CC1
9,785,O=S(=O)(NCc1ccccc1C(F)(F)F)c1c[nH]c2ncccc12
10,801,O=c1c2cnc(N3CCOCC3)nc2ccn1CCc1c[nH]c2ccccc12
11,1150,O=C1CC(c2noc(CCCc3ccccc3)n2)CN1c1ccc(F)c(Cl)c1 (stereo unspecified)
12,1060,COCc1nnc(NC(=O)c2ccccc2OCc2nc(-c3ccc(C)cc3)no2)s1
13,767,O=S(=O)(CCOc1ccc(F)cc1)Nc1ccc(N2CCOCC2)cc1
14,659,Cc1nnc2c(NC(=O)c3ccccn3)cccn12
15,836,Cc1ccc(NC(=O)Cn2nc(N3CCOCC3)c3ccccc3c2=O)cc1F
16,1260,Cc1cccc(-c2noc(Cc3nc(-c4ccccc4)cs3)n2)c1
17,606,Cc1nn2c(-n3ccnc3C)c3c(nc2c1-c1ccccc1)CCC3
18,702,CC(=O)N1CCc2cc(N3CC(C(=O)NCc4cccc(Cl)c4)CC3=O)ccc21 (stereo unspecified)
19,678,CC(C)N(CC[C@H](c1ccccc1)c1cc(CO)ccc1O)C(C)C
20,887,O=c1n(Cc2cccc(Br)c2)nc2c(S(=O)(=O)N3CCCC3)cccn12
21,1080,COC(=O)C1=C(C)N(C2CCCC2)C(=O)C1(NC(=O)CCc1ccccc1)C(F)(F)F (stereo unspecified)

row,Structure (SMILES),RP-LC retention time [s]
1,CC(N)Cc1c[nH]c2ccc(OCc3cccs3)cc12 (stereo unspecified),734
